Test results published in patent US12723063B2, “GIPR-agonist compounds” (Eli Lilly and Company, priority 2019, dated 2026).
pKi: −log10 of the molar value. *1 amine or outer side, *2 acyl side, *3 side chain or, on linkers, in order; H or OH if unused. Where a SMILES comes first, the peptide text is derived from it. Side-chain parts run from the residue outwards. [ ]: non-standard residue; d: D form. The star is where a group is joined. C20 diacid = O=C(O)CCCCCCCCCCCCCCCCCCC(=O)*; γGlu = O=C(O)[C@H](CCC(=O)[*:2])N[*:1]; αMeF = C[C@](N)(Cc1ccccc1)C(=O)O; 4Pal = N[C@@H](Cc1ccncc1)C(=O)O; αMeL = CC(C)C[C@](C)(N)C(=O)O; AEEA = NCCOCCOCC(=O)O; Aib = CC(C)(N)C(=O)O

What follows are molecules tested against T1, human GIPR (Homo sapiens, UniProt P48546) (assay: [125I]-GIP binding, SPA with WGA beads, 0.1% bacitracin). Settings: geometric mean, read-out: hGIPR Ki.
T1 construct: expressed in transfected cells; crude membranes
T1 sequence (P48546 22-466): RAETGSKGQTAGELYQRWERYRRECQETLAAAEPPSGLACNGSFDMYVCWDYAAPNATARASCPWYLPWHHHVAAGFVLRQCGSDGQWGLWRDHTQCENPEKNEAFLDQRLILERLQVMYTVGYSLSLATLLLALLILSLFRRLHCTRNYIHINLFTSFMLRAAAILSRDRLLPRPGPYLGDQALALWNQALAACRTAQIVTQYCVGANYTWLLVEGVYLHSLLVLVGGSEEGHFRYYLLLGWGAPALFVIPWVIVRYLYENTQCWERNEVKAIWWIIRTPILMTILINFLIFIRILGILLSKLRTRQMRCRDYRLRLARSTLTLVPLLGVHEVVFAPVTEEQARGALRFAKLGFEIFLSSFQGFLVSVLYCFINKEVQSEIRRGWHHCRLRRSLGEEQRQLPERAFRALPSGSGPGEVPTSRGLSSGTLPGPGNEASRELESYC
In short: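 Ki values are geometric means (SEM, n independent days), derived from four-parameter nonlinear regression of IC50. Membranes came from hGIPR-expressing CHO cells.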

Structure (SMILES)	pKi
CC[C@H](C)[C@H](NC(=O)[C@H](Cc1ccccc1)NC(=O)[C@@H](NC(=O)CNC(=O)[C@H](CCC(=O)O)NC(=O)C(C)(C)NC(=O)[C@@H](N)Cc1ccc(O)cc1)[C@@H](C)O)C(=O)N[C@@H](CO)C(=O)N[C@@H](CC(=O)O)C(=O)N[C@@H](Cc1ccc(O)cc1)C(=O)N[C@@H](CO)C(=O)N[C@H](C(=O)N[C@@](C)(CC(C)C)C(=O)N[C@@H](CC(C)C)C(=O)N[C@@H](CC(=O)O)C(=O)N[C@@H](CCCCN)C(=O)N[C@@H](CCCCNC(=O)COCCOCCNC(=O)COCCOCCNC(=O)CC[C@H](NC(=O)CCCCCCCCCCCCCCCCCCC(=O)O)C(=O)O)C(=O)N[C@@H](Cc1c[nH]cn1)C(=O)N[C@@H](CCC(N)=O)C(=O)NC(C)(C)C(=O)N[C@@H](CC(=O)O)C(=O)N[C@@H](Cc1ccccc1)C(=O)N[C@H](C(=O)N[C@@H](CCC(=O)O)C(=O)N[C@@H](Cc1ccncc1)C(=O)N[C@@H](CC(C)C)C(=O)N[C@@H](CC(C)C)C(=O)N[C@@H](CCC(=O)O)C(=O)N[C@@H](CCC(N)=O)C(=O)NCC(=O)N1CCC[C@H]1C(=O)N[C@@H](CO)C(=O)N[C@@H](CO)C(=O)NCC(=O)N[C@@H](C)C(=O)N1CCC[C@H]1C(=O)N1CCC[C@H]1C(=O)N1CCC[C@H]1C(=O)N[C@@H](CO)C(N)=O)C(C)C)[C@@H](C)CC [Example 46] (H-Y[Aib]EGTFISDYSI[αMeL]LDKK([AEEA-AEEA-γGlu-C20 diacid])HQ[Aib]DFVE[4Pal]LLEQGPSSGAPPPS-NH2)	10.50
CC[C@H](C)[C@H](NC(=O)[C@H](Cc1ccccc1)NC(=O)[C@@H](NC(=O)CNC(=O)[C@H](CCC(=O)O)NC(=O)C(C)(C)NC(=O)[C@@H](N)Cc1ccc(O)cc1)[C@@H](C)O)C(=O)N[C@@H](CO)C(=O)N[C@@H](CC(=O)O)C(=O)N[C@@H](Cc1ccc(O)cc1)C(=O)N[C@@H](CO)C(=O)N[C@H](C(=O)N[C@@](C)(CC(C)C)C(=O)N[C@@H](CC(C)C)C(=O)N[C@@H](CC(=O)O)C(=O)N[C@@H](CCCCN)C(=O)N[C@@H](CCCCNC(=O)COCCOCCNC(=O)COCCOCCNC(=O)CC[C@H](NC(=O)CCCCCCCCCCCCCCCCCCC(=O)O)C(=O)O)C(=O)N[C@@H](Cc1c[nH]cn1)C(=O)N[C@@H](CCC(N)=O)C(=O)NC(C)(C)C(=O)N[C@@H](CCC(=O)O)C(=O)N[C@@H](Cc1ccccc1)C(=O)N[C@H](C(=O)N[C@@H](CCC(=O)O)C(=O)N[C@@H](Cc1ccncc1)C(=O)N[C@@H](CC(C)C)C(=O)N[C@@H](CC(C)C)C(=O)N[C@@H](C)C(=O)N[C@@H](CCC(N)=O)C(=O)NCC(=O)N1CCC[C@H]1C(=O)N[C@@H](CO)C(=O)N[C@@H](CO)C(=O)NCC(=O)N[C@@H](C)C(=O)N1CCC[C@H]1C(=O)N1CCC[C@H]1C(=O)N1CCC[C@H]1C(=O)N[C@@H](CO)C(N)=O)C(C)C)[C@@H](C)CC [Example 57] (H-Y[Aib]EGTFISDYSI[αMeL]LDKK([AEEA-AEEA-γGlu-C20 diacid])HQ[Aib]EFVE[4Pal]LLAQGPSSGAPPPS-NH2)	10.81
CC[C@H](C)[C@H](NC(=O)[C@H](Cc1ccccc1)NC(=O)[C@@H](NC(=O)CNC(=O)[C@H](CCC(=O)O)NC(=O)C(C)(C)NC(=O)[C@@H](N)Cc1ccc(O)cc1)[C@@H](C)O)C(=O)N[C@@H](CO)C(=O)N[C@@H](CC(=O)O)C(=O)N[C@@H](Cc1ccc(O)cc1)C(=O)N[C@@H](CO)C(=O)N[C@H](C(=O)N[C@@](C)(CC(C)C)C(=O)N[C@@H](CC(C)C)C(=O)N[C@@H](CC(=O)O)C(=O)N[C@@H](CCCCN)C(=O)N[C@@H](CCCCNC(=O)COCCOCCNC(=O)COCCOCCNC(=O)CC[C@H](NC(=O)CCCCCCCCCCCCCCCCCCC(=O)O)C(=O)O)C(=O)N[C@@H](Cc1c[nH]cn1)C(=O)N[C@@H](CCC(N)=O)C(=O)NC(C)(C)C(=O)N[C@@H](CC(=O)O)C(=O)N[C@@H](Cc1ccccc1)C(=O)N[C@H](C(=O)N[C@@H](CCC(=O)O)C(=O)N[C@@H](Cc1ccc(O)cc1)C(=O)N[C@@H](CC(C)C)C(=O)N[C@@H](CC(C)C)C(=O)N[C@@H](CCC(=O)O)C(=O)NCC(=O)NCC(=O)N1CCC[C@H]1C(=O)N[C@@H](CO)C(=O)N[C@@H](CO)C(=O)NCC(=O)N[C@@H](C)C(=O)N1CCC[C@H]1C(=O)N1CCC[C@H]1C(=O)N1CCC[C@H]1C(=O)N[C@@H](CO)C(N)=O)C(C)C)[C@@H](C)CC [Example 69] (H-Y[Aib]EGTFISDYSI[αMeL]LDKK([AEEA-AEEA-γGlu-C20 diacid])HQ[Aib]DFVEYLLEGGPSSGAPPPS-NH2)	10.39
CC[C@H](C)[C@H](NC(=O)[C@H](Cc1ccccc1)NC(=O)[C@@H](NC(=O)CNC(=O)[C@H](CCC(=O)O)NC(=O)C(C)(C)NC(=O)[C@@H](N)Cc1ccc(O)cc1)[C@@H](C)O)C(=O)N[C@@H](CO)C(=O)N[C@@H](CC(=O)O)C(=O)N[C@@H](Cc1ccc(O)cc1)C(=O)N[C@@H](CO)C(=O)N[C@H](C(=O)N[C@@](C)(CC(C)C)C(=O)N[C@@H](CC(C)C)C(=O)N[C@@H](CC(=O)O)C(=O)N[C@@H](CCCCN)C(=O)N[C@@H](CCCCNC(=O)COCCOCCNC(=O)COCCOCCNC(=O)CC[C@H](NC(=O)CCCCCCCCCCCCCCCCCCC(=O)O)C(=O)O)C(=O)N[C@@H](Cc1c[nH]cn1)C(=O)N[C@@H](CCC(N)=O)C(=O)NC(C)(C)C(=O)N[C@@H](CCC(=O)O)C(=O)N[C@@H](Cc1ccccc1)C(=O)N[C@H](C(=O)N[C@@H](CCC(=O)O)C(=O)N[C@@H](Cc1ccncc1)C(=O)N[C@@H](CC(C)C)C(=O)N[C@@H](CC(C)C)C(=O)N[C@@H](C)C(=O)N[C@@H](C)C(=O)NCC(=O)N1CCC[C@H]1C(=O)N[C@@H](CO)C(=O)N[C@@H](CO)C(=O)NCC(=O)N[C@@H](C)C(=O)N1CCC[C@H]1C(=O)N1CCC[C@H]1C(=O)N1CCC[C@H]1C(=O)N[C@@H](CO)C(N)=O)C(C)C)[C@@H](C)CC [Example 59]	10.83
CC[C@H](C)[C@H](NC(=O)[C@H](CO)NC(=O)[C@H](Cc1ccc(O)cc1)NC(=O)[C@H](CC(=O)O)NC(=O)[C@H](CO)NC(=O)[C@@H](NC(=O)[C@](C)(Cc1ccccc1)NC(=O)[C@@H](NC(=O)CNC(=O)[C@H](CCC(=O)O)NC(=O)C(C)(C)NC(=O)[C@@H](N)Cc1ccc(O)cc1)[C@@H](C)O)[C@@H](C)CC)C(=O)N[C@@](C)(CC(C)C)C(=O)N[C@@H](CC(C)C)C(=O)N[C@@H](CC(=O)O)C(=O)N[C@@H](CCCCN)C(=O)N[C@@H](CCCCNC(=O)COCCOCCNC(=O)COCCOCCNC(=O)CC[C@H](NC(=O)CCCCCCCCCCCCCCCCCCC(=O)O)C(=O)O)C(=O)N[C@@H](Cc1c[nH]cn1)C(=O)N[C@@H](CCC(N)=O)C(=O)NC(C)(C)C(=O)N[C@@H](CC(=O)O)C(=O)N[C@@H](Cc1ccccc1)C(=O)N[C@H](C(=O)N[C@@H](CCC(=O)O)C(=O)N[C@@H](Cc1ccncc1)C(=O)N[C@@H](CC(C)C)C(=O)N[C@@H](CC(C)C)C(=O)N[C@@H](C)C(=O)NCC(=O)NCC(=O)N1CCC[C@H]1C(=O)N[C@@H](CO)C(=O)N[C@@H](CO)C(=O)NCC(=O)N[C@@H](C)C(=O)N1CCC[C@H]1C(=O)N1CCC[C@H]1C(=O)N1CCC[C@H]1C(=O)N[C@@H](CO)C(N)=O)C(C)C [Example 50] (H-Y[Aib]EGT[αMeF]ISDYSI[αMeL]LDKK([AEEA-AEEA-γGlu-C20 diacid])HQ[Aib]DFVE[4Pal]LLAGGPSSGAPPPS-NH2)	10.30
CC[C@H](C)[C@H](NC(=O)[C@H](Cc1ccccc1)NC(=O)[C@@H](NC(=O)CNC(=O)[C@H](CCC(=O)O)NC(=O)C(C)(C)NC(=O)[C@@H](N)Cc1ccc(O)cc1)[C@@H](C)O)C(=O)N[C@@H](CO)C(=O)N[C@@H](CC(=O)O)C(=O)N[C@@H](Cc1ccc(O)cc1)C(=O)N[C@@H](CO)C(=O)N[C@H](C(=O)N[C@@](C)(CC(C)C)C(=O)N[C@@H](CC(C)C)C(=O)N[C@@H](CC(=O)O)C(=O)N[C@@H](CCCCN)C(=O)N[C@@H](CCCCNC(=O)COCCOCCNC(=O)COCCOCCNC(=O)CC[C@H](NC(=O)CCCCCCCCCCCCCCCCCCC(=O)O)C(=O)O)C(=O)N[C@@H](Cc1c[nH]cn1)C(=O)N[C@@H](CCC(N)=O)C(=O)NC(C)(C)C(=O)N[C@@H](CCC(=O)O)C(=O)N[C@@H](Cc1ccccc1)C(=O)N[C@H](C(=O)N[C@@H](CCC(=O)O)C(=O)N[C@@H](Cc1ccc(O)cc1)C(=O)N[C@@H](CC(C)C)C(=O)N[C@@H](CC(C)C)C(=O)N[C@@H](CCC(=O)O)C(=O)N[C@H](C(=O)NCC(=O)N1CCC[C@H]1C(=O)N[C@@H](CO)C(=O)N[C@@H](CO)C(=O)NCC(=O)N[C@@H](C)C(=O)N1CCC[C@H]1C(=O)N1CCC[C@H]1C(=O)N1CCC[C@H]1C(=O)N[C@@H](CO)C(N)=O)[C@@H](C)O)C(C)C)[C@@H](C)CC [Example 64] (H-Y[Aib]EGTFISDYSI[αMeL]LDKK([AEEA-AEEA-γGlu-C20 diacid])HQ[Aib]EFVEYLLETGPSSGAPPPS-NH2)	10.66
